Laboratory results: patent publication US5043154A, “Antibacterial, antiplaque, anticalculus oral composition” (priority 1989, dated 1991)

How the values were obtained:
[1] = human clinical tests, reduction of plaque formation; format: in vivo
[2] = tested on: four dental plaque organisms; experiment: MIC test on the four dental plaque organisms, summary in words; format: cell-based; settings: without TCHE
Procedure: (§1) Slurries and solutions described below are prepared to determine effectiveness in terms of minimum inhibitory concentration (MIC) of various antibacterial agents against a variety of oral bacterial organisms implicated in formation of plaque and leading to gingivitis on dental surfaces. Soft plaque contains about 1.7×10^11 organism/gm. (net weight). The antibacterial agents are admixed with anionic materials, particularly anionic surface active agent often commonly employed in oral compositions and polyphosphate anticalculus agent.
(§2) Minimum inhibitory concentration (MIC) of antibacterial agent is used to evaluate the efficacy of the agent in vitro. […] The smaller the MIC value the greater is the efficacy of the antibacterial agent to inhibit the growth of the bacteria. The in vitro MIC data is related to the efficacy of the dentifrice in vivo since retention and release of antibacterial agent into the oral cavity after toothbrushing is in the range of mcg/ml.

Bacteriodes intermedius = experiment: Minimum inhibitory concentration (MIC) against Bacteriodes intermedius, in vitro; format: cell-based
Procedure: as §1, §2

Streptococcus mutans = experiment: Minimum inhibitory concentration (MIC) against Streptococcus mutans, in vitro; format: cell-based
Procedure: as §1, §2

Bacteriodes gingivalis [3] = experiment: inhibition of growth of Bacteriodes gingivalis by dentifrice extracts; format: cell-based; settings: dentifrice containing anionic surfactant plus pyrophosphate with enzyme inhibitors Gantrez and NaF
Procedure: The dentifrice described in Example 3A is compared with the same composition except without any TCHE and with added 0.50 parts of water. Aqueous extracts of each dentifrice are prepared as follows: 50 ml of distilled water is added to 1.0 gm of each dentifrice, mixed well for a couple of hours with stirring bar and centrifuged, after which the supernatant is collected as aqueous extract. Antibacterial activity of the dentifrice extracts are evaluated on Bacteriodes gingivalis.

Bacteriodes gingivalis [4] = experiment: Minimum inhibitory concentration (MIC) against Bacteriodes gingivalis, in vitro; format: cell-based
Procedure: as §1, §2

[5] = tested on: Actinobacillus actinomycetemcomitans; experiment: Minimum inhibitory concentration (MIC) against Actinobacillus actinomycetemcomitans, in vitro; format: cell-based
Procedure: as §1, §2

[6] = 0.5% TCHE, 1% SLS, 1% Gantrez, 2% Pyrophosphate and 0.2% NaF in water

SMILES: CC(C)(C)CC(C)(C)c1ccc(OCCOCC[N+](C)(C)Cc2ccccc2)cc1 [BTC, benzethonium chloride]
- reducing plaque formation ([1]; 0.075% BTC and 1% pyrophosphate dissolved in water): is not
- reducing plaque formation ([1]; 0.075% BTC dissolved in water): effective in reducing plaque formation

SMILES: N=C(NCCCCCCNC(=N)NC(=N)Nc1ccc(Cl)cc1)NC(=N)Nc1ccc(Cl)cc1 [CH, chlorhexidine digluconate]
- reducing plaque formation ([1]; 0.1% CH and 1% sodium N-lauroyl sarcosinate dissolved in water): is not
- reducing plaque formation ([1]; 0.1% CH dissolved in water): effective in reducing plaque formation

SMILES: CCCCCCCCCCCCOS(=O)(=O)[O-].[Na+] [SLS, sodium lauryl sulfate]
- antibacterial effect [2]: ineffective

SMILES: Oc1cc(Cl)ccc1Oc1ccc(Cl)cc1Cl [TCHE, 2,4,4'-trichloro-2'-hydroxydiphenyl ether]
- Minimum Inhibition Concentration (MIC), Bacteriodes intermedius (Bacteriodes intermedius; 0.5% TCHE and 1% SLS in water): 2.5 µg/mL
- Minimum Inhibition Concentration (MIC), Bacteriodes intermedius (Bacteriodes intermedius; [6]): 2.5 µg/mL
- Minimum Inhibition Concentration (MIC), Streptococcus mutans (Streptococcus mutans; 0.5% TCHE and 1% SLS in water): 25.0 µg/mL
- Minimum Inhibition Concentration (MIC), Streptococcus mutans (Streptococcus mutans; [6]): 25.0 µg/mL
- compatibility in dentifrice composition (Bacteriodes gingivalis [3]): compatible
- Minimum Inhibition Concentration (MIC), Bacteriodes gingivalis (Bacteriodes gingivalis [4]; 0.5% TCHE and 1% SLS in water): 2.5 µg/mL
- Minimum Inhibition Concentration (MIC), Bacteriodes gingivalis (Bacteriodes gingivalis [4]; [6]): 2.5 µg/mL
- Minimum Inhibition Concentration (MIC), Actinobacillus actinomycetemcomitans ([5]; 0.5% TCHE and 1% SLS in water): 5.0 µg/mL
- Minimum Inhibition Concentration (MIC), Actinobacillus actinomycetemcomitans [5, 6]: 5.0 µg/mL
